The source of these data is patent publication US10780090B2, “Heteroaryl compounds useful as inhibitors of SUMO activating enzyme” (Millennium Pharmaceuticals, Inc., priority 2014, dated 2020).

SMILES strings stand for the structures. pIC50: −log10 of the molar value.

This assay deals with recombinant human SAE enzyme (Homo sapiens (Human), UniProt Q9UBT2). In words: SAE HTRF enzyme assay. To be noted: for Percent Inhibition: Concentration 0.111 μM; for pIC50: class symbols A/B/C. In kind it is biochemical. An outline of the steps: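 This HTRF format monitors Sumo-Flag–Ubc9-GST thioester formation catalysed by 0.11 nM human SAE with 0.5 μM ATP over 105 min at 24° C. Inhibition is expressed at a single concentration or as IC50.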
Sequence of recombinant human SAE enzyme (Q9UBT2 whole entry): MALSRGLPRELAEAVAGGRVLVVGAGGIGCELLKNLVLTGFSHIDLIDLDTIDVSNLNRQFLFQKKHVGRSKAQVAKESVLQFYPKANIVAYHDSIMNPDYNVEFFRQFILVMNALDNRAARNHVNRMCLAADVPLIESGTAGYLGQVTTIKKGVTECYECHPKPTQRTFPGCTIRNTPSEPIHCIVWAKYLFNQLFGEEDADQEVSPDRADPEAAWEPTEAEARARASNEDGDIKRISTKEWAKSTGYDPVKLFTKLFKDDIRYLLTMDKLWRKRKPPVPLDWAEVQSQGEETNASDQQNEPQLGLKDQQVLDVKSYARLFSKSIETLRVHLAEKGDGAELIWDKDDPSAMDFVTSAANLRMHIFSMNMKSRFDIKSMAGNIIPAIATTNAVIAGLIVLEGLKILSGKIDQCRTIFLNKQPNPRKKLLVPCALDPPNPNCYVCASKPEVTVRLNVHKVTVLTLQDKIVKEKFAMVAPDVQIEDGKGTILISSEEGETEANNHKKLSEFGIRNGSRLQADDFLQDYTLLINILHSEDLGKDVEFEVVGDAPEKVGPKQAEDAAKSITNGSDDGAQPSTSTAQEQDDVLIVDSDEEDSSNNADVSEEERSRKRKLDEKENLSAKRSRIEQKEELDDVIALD
Sequence of recombinant human SAE enzyme (Q9UBE0 whole entry partner): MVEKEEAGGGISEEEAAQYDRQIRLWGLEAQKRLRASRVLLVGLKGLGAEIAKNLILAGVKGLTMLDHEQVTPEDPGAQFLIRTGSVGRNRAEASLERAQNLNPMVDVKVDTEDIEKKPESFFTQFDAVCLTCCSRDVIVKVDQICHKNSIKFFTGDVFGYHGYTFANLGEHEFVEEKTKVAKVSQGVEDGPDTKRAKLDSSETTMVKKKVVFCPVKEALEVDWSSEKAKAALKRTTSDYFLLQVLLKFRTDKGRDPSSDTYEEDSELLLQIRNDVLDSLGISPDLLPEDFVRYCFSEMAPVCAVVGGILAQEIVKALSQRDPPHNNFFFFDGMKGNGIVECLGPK
Background: TR-FRET usually uses a lanthanide donor and a delayed reading to cut background.

The term pIC50 denotes the IC50 on a negative log10 scale, so that one unit is a factor of ten. For `C[C@](N)(c1cccc(Br)c1)c1csc(C(=O)c2cncnc2N[C@@H]2C[C@H](COS(N)(=O)=O)[C@@H](O)[C@H]2O)c1` (single isomer, unassigned) [I-27b, [(1R,2R,3S,4R)-4-{[5-({4-[(1S)-1-amino-1-(3-bromophenyl)ethyl]-2-thienyl}carbonyl)pyrimidin-4-yl]amino}-2,3-dihydroxycyclopentyl]methyl sulfamate or [(1R,2R,3S,4R)-4-{[5-({4-[(1R)-1-amino-1-(3-bromophenyl)ethyl]-2-thienyl}carbonyl)pyrimidin-4-yl]amino}-2,3-dihydroxycyclopentyl]methyl sulfamate], the “Percent Inhibition” value is 101 and the pIC50 was > 8.00.

In the case of `Cc1sc(C(=O)c2cncnc2N[C@@H]2C[C@H](COS(N)(=O)=O)[C@@H](O)C2)cc1[S@+]([O-])c1cccc(Cl)c1` (single isomer, unassigned) [I-28a, [(1R,2S,4R)-4-{[5-({4-[(R)-(3-chlorophenyl)sulfinyl]-5-methyl-2-thienyl}carbonyl)pyrimidin-4-yl]amino}-2-hydroxycyclopentyl]methyl sulfamate or [(1R,2S,4R)-4-{[5-({4-[(S)-(3-chlorophenyl)sulfinyl]-5-methyl-2-thienyl}carbonyl)pyrimidin-4-yl]amino}-2-hydroxycyclopentyl]methyl sulfamate], the “Percent Inhibition” value is given as 66 and the pIC50 is 7.00 to 8.00.

For `Cc1sc(C(=O)c2cncnc2N[C@@H]2C[C@H](COS(N)(=O)=O)[C@@H](O)C2)cc1[S@+]([O-])c1cccc(Cl)c1` (single isomer, unassigned) [I-28b, [(1R,2S,4R)-4-{[5-({4-[(R)-(3-chlorophenyl)sulfinyl]-5-methyl-2-thienyl}carbonyl)pyrimidin-4-yl]amino}-2-hydroxycyclopentyl]methyl sulfamate or [(1R,2S,4R)-4-{[5-({4-[(S)-(3-chlorophenyl)sulfinyl]-5-methyl-2-thienyl}carbonyl)pyrimidin-4-yl]amino}-2-hydroxycyclopentyl]methyl sulfamate], the “Percent Inhibition” value is 100 and the pIC50 is > 8.00.

In the case of `NS(=O)(=O)OC[C@H]1C[C@@H](Nc2ncncc2C(=O)c2cc(C(O)c3cccc(Cl)n3)cs2)C[C@@H]1O` (single isomer, unassigned) [I-29a, [(1R,2S,4R)-4-{[5-({4-[(S)-(6-chloropyridin-2-yl)(hydroxy)methyl]-2-thienyl}carbonyl)pyrimidin-4-yl]amino}-2-hydroxycyclopentyl]methyl sulfamate or [(1R,2S,4R)-4-{[5-({4-[(R)-(6-chloropyridin-2-yl)(hydroxy)methyl]-2-thienyl}carbonyl)pyrimidin-4-yl]amino}-2-hydroxycyclopentyl]methyl sulfamate], the “Percent Inhibition” value amounted to 97 and the pIC50 is > 8.00.

Consider `NS(=O)(=O)OC[C@H]1C[C@@H](Nc2ncncc2C(=O)c2cc(C(O)c3cccc(Cl)n3)cs2)C[C@@H]1O` (single isomer, unassigned) [I-29b, [(1R,2S,4R)-4-{[5-({4-[(S)-(6-chloropyridin-2-yl)(hydroxy)methyl]-2-thienyl}carbonyl)pyrimidin-4-yl]amino}-2-hydroxycyclopentyl]methyl sulfamate or [(1R,2S,4R)-4-{[5-({4-[(R)-(6-chloropyridin-2-yl)(hydroxy)methyl]-2-thienyl}carbonyl)pyrimidin-4-yl]amino}-2-hydroxycyclopentyl]methyl sulfamate], for which the “Percent Inhibition” value came out at 99 and the negative-log IC50 (pIC50) is > 8.00.

As to `C[C@](O)(c1cccc(Cl)c1)c1coc(C(=O)c2cncnc2N[C@@H]2C[C@H](COS(N)(=O)=O)[C@@H](O)C2)c1` (single isomer, unassigned) [I-30a, {(1R,2S,4R)-4-[(5-{4-[(1S)-1-(3-chlorophenyl)-1-hydroxyethyl]-2-furoyl}pyrimidin-4-yl)amino]-2-hydroxycyclopentyl}methyl sulfamate or {(1R,2S,4R)-4-[(5-{4-[(1R)-1-(3-chlorophenyl)-1-hydroxyethyl]-2-furoyl}pyrimidin-4-yl)amino]-2-hydroxycyclopentyl}methyl sulfamate], the “Percent Inhibition” value was 100 and the pIC50 was > 8.00.

Regarding `C[C@](O)(c1cccc(Cl)c1)c1coc(C(=O)c2cncnc2N[C@@H]2C[C@H](COS(N)(=O)=O)[C@@H](O)C2)c1` (single isomer, unassigned) [I-30b, {(1R,2S,4R)-4-[(5-{4-[(1S)-1-(3-chlorophenyl)-1-hydroxyethyl]-2-furoyl}pyrimidin-4-yl)amino]-2-hydroxycyclopentyl}methyl sulfamate or {(1R,2S,4R)-4-[(5-{4-[(1R)-1-(3-chlorophenyl)-1-hydroxyethyl]-2-furoyl}pyrimidin-4-yl)amino]-2-hydroxycyclopentyl}methyl sulfamate], the “Percent Inhibition” value is given as 88 and the pIC50 is 7.00 to 8.00.

Regarding `NS(=O)(=O)OC[C@H]1C[C@@H](Nc2ncncc2C(=O)c2cc([C@@]3(c4ccccc4)CCCO3)cs2)C[C@@H]1O` (single isomer, unassigned) [I-32a, [(1R,2S,4R)-2-hydroxy-4-{[5-({4-[(2S)-2-phenyltetrahydrofuran-2-yl]-2-thienyl}carbonyl)pyrimidin-4-yl]amino}cyclopentyl]methyl sulfamate or [(1R,2S,4R)-2-hydroxy-4-{[5-({4-[(2R)-2-phenyltetrahydrofuran-2-yl]-2-thienyl}carbonyl)pyrimidin-4-yl]amino}cyclopentyl]methyl sulfamate], the “Percent Inhibition” value was found to be 98 and the pIC50 was > 8.00.

Turning to `NS(=O)(=O)OC[C@H]1C[C@@H](Nc2ncncc2C(=O)c2cc([C@@]3(c4ccccc4)CCCO3)cs2)C[C@@H]1O` (single isomer, unassigned) [I-32b, [(1R,2S,4R)-2-hydroxy-4-{[5-({4-[(2S)-2-phenyltetrahydrofuran-2-yl]-2-thienyl}carbonyl)pyrimidin-4-yl]amino}cyclopentyl]methyl sulfamate or [(1R,2S,4R)-2-hydroxy-4-{[5-({4-[(2R)-2-phenyltetrahydrofuran-2-yl]-2-thienyl}carbonyl)pyrimidin-4-yl]amino}cyclopentyl]methyl sulfamate], the “Percent Inhibition” value turned out to be 90 and the pIC50 is 7.00 to 8.00.

Consider `N[C@H](c1cccc(Cl)c1)c1csc(C(=O)c2cncnc2N[C@@H]2C[C@H](COS(N)(=O)=O)[C@@H](O)C2)c1` (single isomer, unassigned) [I-36a, [(1R,2S,4R)-4-{[5-({4-[(R)-amino(3-chlorophenyl)methyl]-2-thienyl}carbonyl)pyrimidin-4-yl]amino}-2-hydroxycyclopentyl]methyl sulfamate or [(1R,2S,4R)-4-{[5-({4-[(S)-amino(3-chlorophenyl)methyl]-2-thienyl}carbonyl)pyrimidin-4-yl]amino}-2-hydroxycyclopentyl]methyl sulfamate], for which the “Percent Inhibition” value is reported as 100 and the pIC50 was > 8.00.

As for `N[C@H](c1cccc(Cl)c1)c1csc(C(=O)c2cncnc2N[C@@H]2C[C@H](COS(N)(=O)=O)[C@@H](O)C2)c1` (single isomer, unassigned) [I-36b, [(1R,2S,4R)-4-{[5-({4-[(R)-amino(3-chlorophenyl)methyl]-2-thienyl}carbonyl)pyrimidin-4-yl]amino}-2-hydroxycyclopentyl]methyl sulfamate or [(1R,2S,4R)-4-{[5-({4-[(S)-amino(3-chlorophenyl)methyl]-2-thienyl}carbonyl)pyrimidin-4-yl]amino}-2-hydroxycyclopentyl]methyl sulfamate], the “Percent Inhibition” value was determined as 99 and the pIC50 is > 8.00.

Turning to `NS(=O)(=O)OC[C@H]1C[C@@H](Nc2ncncc2C(=O)c2cc([C@@]3(c4cccc(Cl)c4)CCCN3)cs2)C[C@@H]1O` (single isomer, unassigned) [I-38a, [(1R,2S,4R)-4-{[5-({4-[(2S)-2-(3-chlorophenyl)pyrrolidin-2-yl]-2-thienyl}carbonyl)pyrimidin-4-yl]amino}-2-hydroxycyclopentyl]methyl sulfamate or [(1R,2S,4R)-4-{[5-({4-[(2R)-2-(3-chlorophenyl)pyrrolidin-2-yl]-2-thienyl}carbonyl)pyrimidin-4-yl]amino}-2-hydroxycyclopentyl]methyl sulfamate], the “Percent Inhibition” value is 75 and the pIC50 was 7.00 to 8.00.

Regarding `NS(=O)(=O)OC[C@H]1C[C@@H](Nc2ncncc2C(=O)c2cc([C@@]3(c4cccc(Cl)c4)CCCN3)cs2)C[C@@H]1O` (single isomer, unassigned) [I-38b, [(1R,2S,4R)-4-{[5-({4-[(2S)-2-(3-chlorophenyl)pyrrolidin-2-yl]-2-thienyl}carbonyl)pyrimidin-4-yl]amino}-2-hydroxycyclopentyl]methyl sulfamate or [(1R,2S,4R)-4-{[5-({4-[(2R)-2-(3-chlorophenyl)pyrrolidin-2-yl]-2-thienyl}carbonyl)pyrimidin-4-yl]amino}-2-hydroxycyclopentyl]methyl sulfamate], the “Percent Inhibition” value amounted to 98 and the pIC50 was > 8.00.

On to `NS(=O)(=O)OC[C@H]1C[C@@H](Nc2ncncc2C(=O)c2cc(Cc3cccc(Cl)c3)c([C@@H]3CCCO3)s2)C[C@@H]1O` (single isomer, unassigned) [I-41a, [(1R,2S,4R)-4-{[5-({4-(3-chlorobenzyl)-5-[(2S)-tetrahydrofuran-2-yl]-2-thienyl}carbonyl)pyrimidin-4-yl]amino}-2-hydroxycyclopentyl]methyl sulfamate or [(1R,2S,4R)-4-{[5-({4-(3-chlorobenzyl)-5-[(2R)-tetrahydrofuran-2-yl]-2-thienyl}carbonyl)pyrimidin-4-yl]amino}-2-hydroxycyclopentyl]methyl sulfamate], for which the “Percent Inhibition” value is reported as 98 and the pIC50 was > 8.00.
